A short description of assay [1]: Body fat mass by DEXA in Swiss mice fed with a western diet. In kind it is in vivo. On the procedure: In our investigations, two kinds of diet were used: 1—a standard diet (A04 diet from UAR) containing 3% of lipids and bringing 2900 kcal per kg; 2—a western diet (from UAR too) containing 16% of lipids and bringing 4300 kcal per kg.
D,L-β-Aminoisobutyric acid (BAIBA) was purchased from Sigma-Aldrich. BAIBA has been administered in drinking water at the dose of 100 mg/kg/day or 500 mg/kg/day for 6 weeks, 2 months or 4 months according to the experiments.
The in vivo determination of body fat mass in anesthetized mice has been performed by “DEXA” (Dual Energy X-ray Absorptiometry) (Pietriobelli A., Formica C., Wang Z., Heymsfield S. B., 1996, Am. J. Physiol. 271 (Endocrinol. Metab. 34): E941-E951)). […] It is noteworthy that DEXA also gives for each investigated animal its lean mass that is the total amount of water and proteins (in grams) in the body (excluding the head). Therefore, for a given animal, DEXA allows the determination of the percentage of body fat which is its body fat mass divided by the sum of its body lean and fat masses (fat mass/(lean mass+fat mass)). The “DEXA” apparatus was a Piximus® from Lunar Corporation (Madison, Wis.). Mice were anesthetized thanks to a mixture of xylazine and ketamine. […]
In a third series of experiments, we sought to determine as to whether of 100 mg/kg/day of β-aminoisobutyric acid (BAIBA) would be able to decrease body fat mass in Swiss mice fed with a western diet (i.e. hypercaloric diet). For this purpose, young (4 weeks old at T0) Swiss mice were fed with a hypercaloric western diet (WD), with or without BAIBA in the drinking water (8 mice in each group). For comparison, the experiment included a group of mice (n=8) fed with a standard diet (SD). DEXA was performed one day before the beginning of the treatment (T0) and then two, four and six weeks after the initiation of the experience (T2, T4 and T6, respectively). This allowed us to determine for each animal the variation of body parameters (e.g. fat mass, body weight) for the different periods of the treatment (T0-T2, T2-T4, T4-T6 and T0-T6). For these four DEXA determinations (T0 to T6), mice were not fasted before measurements. In this experiment, BAIBA reduced the gain of body fat mass in Swiss mice fed with a western diet and this beneficial effect was observed from the fourth week of the BAIBA administration. This effect is illustrated in FIG. 3. […] Indeed, during the T0-T6 period control mice fed with the western diet (Controls-WD) gained 4.88±0.83 grams of body fat whereas mice fed with the same diet and receiving BAIBA (BAIBA-WD) gained 3.91±0.59 grams of body fat mass. For comparison, mice fed with the standard diet (Controls-SD) gained 3.18±0.34 grams of body fat during the entire period (T0-T6) of the experiment. • At the end of the treatment (T6), the body fat mass was 4.48±0.33, 6.21±0.85 and 5.25±0.60 grams, respectively for the Controls-SD, Controls-WD and BAIBA-WD groups of mice (15% decrease between Controls-WD and BAIBA-WD). The percentage of body fat ((fat mass)/(fat+lean mass)) was at this time 13.23±0.86, 17.96±2.04 et 15.76±1.53%, respectively in the Controls-SD, Controls-WD and BAIBA-WD groups.
Finally, we sought to determine on the very same animals as to whether fasting would be able to enhance the beneficial effect of BAIBA on body fat mass. Thus, after the fourth DEXA measurement (i.e. DEXA determination at T6), mice were allowed to recover from the anaesthesia for ca. 2 days and were then submitted to a 48-hour period of fast. A last DEXA measurement was then performed in fasted mice. […] Indeed, after the fasting period, body fat mass was 3.10±0.30, 5.40±0.75 et 4.79±0.56 grams, respectively in control mice fed the standard diet (Controls-SD), control mice fed with the western diet (Controls-WD), and mice fed with the western diet and receiving BAIBA (BAIBA-WD). […]

The test system of assay [2] is mitochondrial beta-oxidation of fatty acids in liver. The experiment in a line: Mitochondrial beta-oxidation of fatty acids in liver.

The structures appear in SMILES notation.

With `CC(CN)C(=O)O` (racemic) [BAIBA, D,L-β-Aminoisobutyric acid], the “gain of body fat mass” value in assay [1] (100 mg/kg/day, western diet, T0-T6) came to 3.91±0.59 grams. Moreover, the “reduction of the gain of body fat mass” value in assay [1] (100 mg/kg/day, western diet, T0-T6, vs Controls-WD) was 20%. Besides, in assay [1] (100 mg/kg/day, western diet, T4-T6 period), the body fat lost worked out at 0.45±0.30 grams. Besides, the body weight in assay [1] (100 mg/kg/day, western diet, after 6 weeks) is 37.0±0.76 grams; in assay [1] (western diet, at the end of the fasting period), 33.6±0.9 grams. Besides, the “percentage of body fat ((fat mass)/(fat+lean mass))” value in assay [1] (100 mg/kg/day, western diet, at T6) came to 15.76±1.53%. The body fat mass in assay [1] (100 mg/kg/day, western diet, at T6, fed) is recorded as 5.25±0.60 grams; in assay [1] (western diet 6 weeks, after 48-hour fasting period), 4.79±0.56 grams. For the same compound, the “decrease of the percentage of body fat” value in assay [1] (western diet 6 weeks, fasted state) is recorded as 11%; in assay [1] (western diet 6 weeks, fed state), 15%. Besides, in assay [1] (western diet, at T6), the “decrease of body fat mass between Controls-WD and BAIBA-WD” value is given as 15%. Further, the “mitochondrial beta-oxidation of fatty acids in liver” value in assay [2] was “increases”.

The record behind these values is patent US20060167098A1, “Method for the treatment of diseases linked to an accumulation of triglycerides and cholesterol” (Institut National De La Sante ET De LA Recherche Medicale …, priority 2003, published 2006).
